# Test results as given in the supplement of paper PMC10307832.
# Columns and labels:
# Assay in all cases: relative viability (nuclei count vs DMSO), 5 days (fraction); higher = more cells survive
# Quizartinib + OSI-027 = compound: CC(C)(C)c1cc(NC(=O)Nc2ccc(-c3cn4c(n3)sc3cc(OCCN5CCOCC5)ccc34)cc2)no1 [Quizartinib] + COc1cccc2cc(-c3nc([C@H]4CC[C@H](C(=O)O)CC4)n4ncnc(N)c34)[nH]c12 [OSI-027] (partner 0.5 µM)
# Procedure, shortened: (§1)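 Values are medians from duplicate plates. Each reflects relative viability, defined as the nuclei count of treated wells over that of vehicle wells. Lung cancer cell lines in 1536-well plates were pin-tool dosed one day after seeding with one drug alone or with a fixed anchor-drug dose plus five library-drug doses (not always all listed) in √10 steps, then fixed, stained and imaged at 4× after 5 days.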
# Quizartinib + Pictilisib = compound: CC(C)(C)c1cc(NC(=O)Nc2ccc(-c3cn4c(n3)sc3cc(OCCN5CCOCC5)ccc34)cc2)no1 [Quizartinib] + CS(=O)(=O)N1CCN(Cc2cc3nc(-c4cccc5[nH]ncc45)nc(N4CCOCC4)c3s2)CC1 [Pictilisib] (partner 1 µM)
# Procedure, shortened: as §1
# YM155 + Lapatinib = compound: COCC[n+]1c2c(n(Cc3cnccn3)c1C)C(=O)c1ccccc1C2=O [YM155] + CS(=O)(=O)CCNCc1ccc(-c2ccc3ncnc(Nc4ccc(OCc5cccc(F)c5)c(Cl)c4)c3c2)o1 [Lapatinib] (partner 2 µM)
# Procedure, shortened: as §1
# YM155 + Dasatinib = compound: COCC[n+]1c2c(n(Cc3cnccn3)c1C)C(=O)c1ccccc1C2=O [YM155] + Cc1nc(Nc2ncc(C(=O)Nc3c(C)cccc3Cl)s2)cc(N2CCN(CCO)CC2)n1 [Dasatinib] (partner 0.075 µM)
# Procedure, shortened: as §1
Cell Line,relative viability (Quizartinib + OSI-027; first compound 0.001 µM),relative viability (Quizartinib + OSI-027; first compound 0.003162 µM),relative viability (Quizartinib + OSI-027; first compound 0.01 µM),relative viability (Quizartinib + OSI-027; first compound 0.03162 µM),relative viability (Quizartinib + OSI-027; first compound 0.1 µM),relative viability (Quizartinib + Pictilisib; first compound 0.001 µM),relative viability (Quizartinib + Pictilisib; first compound 0.003162 µM),relative viability (Quizartinib + Pictilisib; first compound 0.01 µM),relative viability (Quizartinib + Pictilisib; first compound 0.03162 µM),relative viability (Quizartinib + Pictilisib; first compound 0.1 µM),relative viability (YM155 + Lapatinib; first compound 0.002 µM),relative viability (YM155 + Lapatinib; first compound 0.006325 µM),relative viability (YM155 + Lapatinib; first compound 0.02 µM),relative viability (YM155 + Lapatinib; first compound 0.06325 µM),relative viability (YM155 + Dasatinib; first compound 0.002 µM),relative viability (YM155 + Dasatinib; first compound 0.006325 µM),relative viability (YM155 + Dasatinib; first compound 0.02 µM),relative viability (YM155 + Dasatinib; first compound 0.06325 µM)
PC-3 [JPC-3],0.692,0.747,0.782,0.757,0.698,0.656,0.794,0.834,0.733,0.73,0.455,0.455,0.437,0.455,0.917,1.04,1.02,1.01
NCI-H650,0.527,0.505,0.428,0.548,0.61,0.992,0.814,0.923,0.923,1.12,0.84,0.929,0.785,0.707,0.446,0.524,0.509,0.44
NCI-H596,0.665,0.745,0.652,0.663,0.547,0.427,0.332,0.455,0.418,0.416,–,1.11,1.09,1.06,0.653,0.58,0.544,0.692
NCI-H2170,0.695,0.659,0.825,0.774,0.816,0.388,0.327,0.308,0.42,0.321,0.261,0.261,0.291,0.235,0.485,0.628,0.572,0.625
NCI-H2087,–,0.583,0.486,0.514,0.496,0.393,0.867,0.916,0.665,0.81,1.26,1.01,1.12,0.708,0.765,0.78,0.964,0.775
COR-L 105,0.656,0.69,0.649,0.619,0.678,0.397,0.49,0.401,0.365,0.371,0.33,0.353,0.337,0.368,0.284,0.333,0.312,0.283
NCI-H2126,0.66,0.753,0.671,0.621,0.693,0.473,0.504,0.462,0.519,0.541,0.768,0.788,0.726,0.783,0.583,0.673,0.626,0.745
NCI-H322M,0.54,0.568,0.556,0.517,0.57,0.523,0.545,0.509,0.533,0.537,0.601,0.628,0.509,0.585,0.238,0.271,0.278,0.26
NCI-H2009,0.546,0.614,0.62,0.664,0.724,0.475,0.799,0.833,0.604,0.737,0.888,0.893,0.946,0.119,0.265,0.264,0.343,0.266
